Laboratory results as given in patent US20260250291A1, “INHIBITORS OF FGFR2 AND FGFR3 AND USES THEREOF” (Insilico Medicine IP Limited, priority 2023, published 2026).

Assays:
[1] = target: T1, FGFR1 (Homo sapiens, UniProt P11362); assay: FGFR biochemical assay (LanthaScreen TR-FRET), FGFR1; conditions: enzyme pre-incubation 60 min; ATP 28 μM; FGFR1 0.01 nM
T1 construct: purchased Carna
Method: (§1) The following procedure was used to test the compounds described herein: • Dilute the test compounds to 100× of the final desired highest concentration in reaction by 100% DMSO. • Perform a serial dilution in a 384-well source plate by transferring 15 μL to 30 μL of […] DMSO in the next well and so forth for a total of 10 concentrations. • Dispense 100 nL of compound solution each well from the source plate to a 384-well assay plate in duplicates by Echo (Labcyte). • Prepare a solution of 2× FGFR enzyme (Carna) in kinase buffer (50 mM HEPES, pH 7.5, 10 mM MgCl2, 4 mM DTT, 0.01% Tween-20 and 0.01% BSA). The final concentration of FGFR1/2/3/4 is 0.01. 0.01, 0.1 and 1 nM, respectively. • Add 5 μL of kinase solution to each well of the compound-containing assay plate, except for low control wells without enzyme (add 5 μL of 1× kinase buffer instead). • Shake the plate and incubate at room temperature for 10 minutes (for Example 1) (or 60 min for the remaining Examples in Table 4). • Prepare the substrate solution of Fluorescein-Poly GT (Invitrogen) and ATP (Sigma) in 1× kinase reaction buffer at 2-fold of the final concentration of each reagent desired in the assay (final concentration of ATP is 28, 22, 35 and 238 μM for FGFR1/2/3/4 respectively; Fluorescein-Poly GT is fixed at 20 nM). • Add 5 μL of substrate solution to each well of the assay plate to initiate the kinase reaction. • Shake the plate shortly and incubate at room temperature for 30 minutes. • Prepare 2× detection solution in Antibody Dilution Buffer (LanthaScreen® Tb—PY20 Antibody Kit, Invitrogen). • Add 10 μL of detection solution to each well of the assay plate to stop the reaction. • Mix briefly with centrifuge and incubate at room temperature for 60 minutes before reading on a microplate reader. • Collect data on Envision with excitation at 340 nm and emission at 520 nm and 495 nm. • Calculate Ratio of RFU 520 nm/RFU 495 nm. Convert Ratio values to percent inhibition values (Percent inhibition=(max−sample Ratio)/(max−min)*100) where “min” means the Ratio of no enzyme control and “max” means the Ratio of DMSO control. • Data are analyzed and curve fitting is performed by XLFit Excel add-in version 5.4.0.8. The IC50 calculation equation is: Y=Bottom+(Top−Bottom)/(1+(IC50/X)^HillSlope.

[2] = target: T2, FGFR2 (Homo sapiens, UniProt P21802); assay: FGFR biochemical assay (LanthaScreen TR-FRET), FGFR2; conditions: enzyme pre-incubation 60 min; ATP 22 μM; FGFR2 0.01 nM
T2 construct: purchased Carna
Method: as §1

[3] = target: T3, FGFR3 (Homo sapiens, UniProt P22607); assay: FGFR biochemical assay (LanthaScreen TR-FRET), FGFR3; conditions: enzyme pre-incubation 60 min; ATP 35 μM; FGFR3 0.1 nM
T3 construct: purchased Carna
Method: as §1

[4] = tested on: RT4 (FGFR3); assay: Cellular proliferation assay (CellTiter-Glo), RT4; assay type: cell-based; conditions: Homo sapiens, RT-4, RT4 cells, 72 hours
Method: (§2) Compounds were tested proliferation assay in SNU-16, KATO-III, SNU-1, AGS, AN3CA, MFE280, MKN45, KLE, RT112-84, RT4, T24, UM-UC-3, KMS11, OPM-2, RAPI8226, U266, SUM 52PE, MCF7 and BaF3 cell lines. Test compounds were prepared in 10 mM DMSO stock solutions, add […] 1000× stock solution to 98 μL growth medium to get […] final concentration, 3-fold 9-points dilution was performed. Cell lines suspension of 95 μL were seeded into 96-well plate and incubated at 37° C. for 24 hours, add 5 μL 20× compounds solutions to 96-well plate according to the plate map with Echo550 liquid handler. Final DMSO concentration in each well is 0.1%, cell lines were incubated at 37° C. for 72 hours, then equilibrate the assay plate to room temperature before measurement, add 50 μL of CellTiter-Glo® Reagent into each well, mix contents for 2 minutes on an orbital shaker to induce cell lysis and incubate at room temperature for 10 minutes to stabilize luminescent signal, Chemiluminescence was then read on an EnVision reader. Inhibition Rate (Inh. %) was calculated relative to vehicle (DMSO) treated control wells using following formula: Inhibition Rate (Inh %)=100−(RLU compound−RLU blank)/(RLU control−RLU blank)*100%, Data were analyzed using Graphpad Prism 7.0, fitting to a 4-parameter equation to generate concentration response curves.

[5] = tested on: SNU-16 (FGFR2); assay: Cellular proliferation assay (CellTiter-Glo), SNU-16; assay type: cell-based; conditions: Homo sapiens, SNU-16 cells, 72 hours
Method: as §2

T2 sequence (P21802 22-821): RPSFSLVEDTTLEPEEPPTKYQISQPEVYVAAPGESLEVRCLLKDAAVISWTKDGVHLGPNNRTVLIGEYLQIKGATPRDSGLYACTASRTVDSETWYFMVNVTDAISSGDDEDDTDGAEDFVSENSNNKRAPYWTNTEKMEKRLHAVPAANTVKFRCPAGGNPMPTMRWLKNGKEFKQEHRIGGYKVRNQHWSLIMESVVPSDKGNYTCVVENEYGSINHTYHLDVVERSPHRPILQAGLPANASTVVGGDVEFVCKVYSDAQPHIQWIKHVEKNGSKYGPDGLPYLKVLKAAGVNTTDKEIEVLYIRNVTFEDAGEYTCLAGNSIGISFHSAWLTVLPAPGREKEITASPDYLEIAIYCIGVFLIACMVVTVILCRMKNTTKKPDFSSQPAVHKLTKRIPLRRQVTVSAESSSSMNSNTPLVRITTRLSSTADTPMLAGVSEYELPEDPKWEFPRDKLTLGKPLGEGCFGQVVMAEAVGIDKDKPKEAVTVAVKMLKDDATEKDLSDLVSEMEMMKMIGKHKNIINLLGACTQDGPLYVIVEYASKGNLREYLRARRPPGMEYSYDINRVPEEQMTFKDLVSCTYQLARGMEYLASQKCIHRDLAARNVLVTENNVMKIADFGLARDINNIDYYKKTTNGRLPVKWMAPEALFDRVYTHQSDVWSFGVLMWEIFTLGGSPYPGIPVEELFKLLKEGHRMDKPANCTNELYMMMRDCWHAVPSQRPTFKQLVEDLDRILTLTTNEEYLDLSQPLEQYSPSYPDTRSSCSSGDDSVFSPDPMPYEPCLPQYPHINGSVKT
T1 sequence (P11362 22-822): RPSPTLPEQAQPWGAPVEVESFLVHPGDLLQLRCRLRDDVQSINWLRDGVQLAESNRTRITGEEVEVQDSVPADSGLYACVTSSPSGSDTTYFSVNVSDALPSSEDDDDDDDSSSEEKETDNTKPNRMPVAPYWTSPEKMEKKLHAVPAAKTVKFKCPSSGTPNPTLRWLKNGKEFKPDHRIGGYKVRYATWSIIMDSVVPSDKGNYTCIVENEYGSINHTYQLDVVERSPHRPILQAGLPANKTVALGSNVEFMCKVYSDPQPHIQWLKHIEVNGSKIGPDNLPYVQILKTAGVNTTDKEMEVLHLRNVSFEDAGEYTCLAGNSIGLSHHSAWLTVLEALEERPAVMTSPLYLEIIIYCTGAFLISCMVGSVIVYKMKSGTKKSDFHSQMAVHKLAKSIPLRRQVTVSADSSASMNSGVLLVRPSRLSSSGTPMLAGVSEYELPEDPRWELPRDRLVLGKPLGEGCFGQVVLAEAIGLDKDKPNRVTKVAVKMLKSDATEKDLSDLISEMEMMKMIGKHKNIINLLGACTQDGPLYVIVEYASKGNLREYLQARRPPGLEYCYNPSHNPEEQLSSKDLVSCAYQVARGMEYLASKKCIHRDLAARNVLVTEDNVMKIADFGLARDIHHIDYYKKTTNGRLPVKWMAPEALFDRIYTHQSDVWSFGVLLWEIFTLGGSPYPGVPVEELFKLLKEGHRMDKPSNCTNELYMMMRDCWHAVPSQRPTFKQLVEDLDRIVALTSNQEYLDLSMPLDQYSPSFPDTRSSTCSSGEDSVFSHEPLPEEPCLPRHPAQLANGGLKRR
T3 sequence (P22607 23-806): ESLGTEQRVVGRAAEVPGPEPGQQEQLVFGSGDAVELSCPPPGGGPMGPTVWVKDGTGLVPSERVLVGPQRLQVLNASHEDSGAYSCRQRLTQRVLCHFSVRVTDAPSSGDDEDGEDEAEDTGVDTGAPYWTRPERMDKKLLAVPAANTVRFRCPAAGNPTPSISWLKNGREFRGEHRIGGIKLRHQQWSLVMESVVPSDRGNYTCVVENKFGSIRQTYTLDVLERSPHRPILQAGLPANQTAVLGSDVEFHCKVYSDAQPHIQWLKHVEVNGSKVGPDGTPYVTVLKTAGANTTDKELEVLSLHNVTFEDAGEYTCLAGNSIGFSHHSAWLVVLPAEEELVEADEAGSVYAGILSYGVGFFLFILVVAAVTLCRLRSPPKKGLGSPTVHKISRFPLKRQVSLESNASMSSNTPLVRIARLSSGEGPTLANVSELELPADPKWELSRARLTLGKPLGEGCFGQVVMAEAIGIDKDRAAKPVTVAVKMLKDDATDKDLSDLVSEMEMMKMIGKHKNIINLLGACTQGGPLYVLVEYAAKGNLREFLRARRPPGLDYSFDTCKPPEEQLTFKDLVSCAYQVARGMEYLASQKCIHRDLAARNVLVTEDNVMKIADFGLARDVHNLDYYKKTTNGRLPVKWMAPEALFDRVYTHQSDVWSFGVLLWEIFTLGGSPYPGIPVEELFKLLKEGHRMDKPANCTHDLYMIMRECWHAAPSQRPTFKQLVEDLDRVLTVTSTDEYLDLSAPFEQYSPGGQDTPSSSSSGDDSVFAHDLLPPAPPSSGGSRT

Structure (SMILES)	IC50 [1] [nM]	IC50 [2] [nM]	IC50 [3] [nM]	IC50 [4] [nM]	IC50 [5] [nM]
C=C(F)C(=O)Nc1ccc(-c2c(-c3ccc(Oc4nccc(C)n4)c(F)c3)c(C(N)=O)n3cc(-c4cnn(C)c4)cnc23)cc1 [Example 9]	100 to 1000	< 10	100 to 1000		
C=C(C)C(=O)Nc1ccc(-c2c(-c3ccc(Oc4nccc(C)n4)c(F)c3)c(C(N)=O)n3cc(C)cnc23)c(F)c1 [Example 19]	> 1000	10 to 100	100 to 1000		
C=C(F)C(=O)Nc1ccc(-c2c(-c3ccc(Oc4nccc(C)n4)c(F)c3)c(C(N)=O)n3cc(N4CCOCC4)cnc23)cc1 [Example 8]	> 1000	< 10	10 to 100	10 to 100	< 10
C=C(F)C(=O)Nc1ccc(-c2c(-c3ccc(Oc4nccc(C)n4)c(F)c3)c(C(N)=O)n3cc(C)ncc23)cc1 [Example 3]	100 to 1000	< 10	10 to 100	10 to 100	< 10
C=C(F)C(=O)Nc1ccc(-c2c(-c3ccc(Oc4nccc(C)n4)c(F)c3)c(C(N)=O)n3cc(CC)cnc23)cc1 [Example 7]	> 1000	< 10	100 to 1000	10 to 100	
C=C(F)C(=O)Nc1ccc(-c2c(-c3ccc(Oc4nccc(C)n4)cc3)c(C(N)=O)n3cc(C)cnc23)cc1 [Example 20]	100 to 1000	< 10	10 to 100	10 to 100	< 10
Cc1cnc2c(-c3ccc(NC(=O)/C(F)=C/CN(C)C)cc3)c(-c3ccc(Oc4nccc(C)n4)c(F)c3)c(C(N)=O)n2c1 [Example 21]	> 1000	10 to 100	10 to 100		
C=C(F)C(=O)N1CCc2cc(-c3c(-c4ccc(Oc5nccc(C)n5)c(F)c4)c(C(N)=O)n4cc(C)cnc34)ccc21 [Example 17]	100 to 1000	< 10	< 10	10 to 100	< 10
Cc1cnc2c(-c3ccc(NC(=O)/C=C/CNC4COC4)cc3)c(-c3ccc(Oc4nccc(C)n4)c(F)c3)c(C(N)=O)n2c1 [Example 22]	100 to 1000	< 10	10 to 100	10 to 100	< 10
C=C(F)C(=O)Nc1ccc(-c2c(-c3ccc(Oc4nccc(C)n4)c(F)c3)c(C(N)=O)n3cc(C4CC4)cnc23)cc1 [Example 5]	100 to 1000	10 to 100	10 to 100	10 to 100	10 to 100
Cc1cnc2c(-c3ccc(NC(=O)/C=C/CN(C)C)cc3)c(-c3ccc(Oc4nccc(C)n4)c(F)c3)c(C(N)=O)n2c1 [Example 14]	100 to 1000	< 10	10 to 100	10 to 100	< 10
C=C(F)C(=O)Nc1ccc(-c2c(-c3ccc(Oc4nccc(C)n4)cc3Cl)c(C(N)=O)n3cc(C)cnc23)cc1 [Example 15]	> 1000	100 to 1000	100 to 1000		
